Reference: PMC6598400 (Frontiers in Immunology, 2019)
Like-named read-outs stand apart in the source and are kept apart here.

Legend:
[1] = tested on: IL-8 production in U937 cells infected with influenza A virus A/PuertoRico/8/1934; test: IL-8 production in influenza-infected U937 cells (AlphaLISA); type: cell-based, human; details: read-out: EC50 IL-8
[2] = tested on: IP-10 production in U937 cells infected with influenza A virus A/PuertoRico/8/1934; test: cells; type: cell-based
[3] = tested on: MCP-1 production in U937 cells infected with influenza A virus A/PuertoRico/8/1934; test: MCP-1 production in influenza-infected U937 cells (AlphaLISA); type: cell-based, human; details: read-out: EC50 MCP-1
in vitro = details: human
[4] = tested on: influenza A virus (A/PR/8/34); test: Mouse lethal influenza model: survival and body weight; type: in vivo, BALB/c mice; details: for Body weight loss: started 2 h after infection; for Survival rate: started 2 h after infection with 500 TCID50, monitored to day 20
[5] = tested on: influenza A virus (A/PR/8/34); test: Inflammatory cell infiltration in lungs/BALF of infected mice (histology, flow cytometry); type: in vivo, BALB/c mice; details: 15 mg/kg oral from day 3
Procedure: BALF samples were washed with FACS buffer (10% BSA in PBS). Red blood cells were lysed using ammonium chloride and […] were seeded into a 96-well U-bottom plate. Cells were pre-incubated with anti-FcgRIII/II (Fc block) in FACS buffer before a 30-min incubation with the following fluorochrome-labeled antibodies (Biolegend): PE-Cy7-conjugated Ly6C (clone HK1.4, dilution 1:200), PE-conjugated CD11b (clone M1/70, dilution 1:200), APC-conjugated Ly6G (clone 1A8, dilution 1:200), and FITC-conjugated CD11c (clone N418, dilution 1:100). Cells were washed with phosphate-buffered saline twice and counterstained with 7AAD (Biolegend) to differentiate apoptotic and dead cells and then analyzed using a LSR Fortessa (Becton Dickinson).
Whole lungs were perfused with 10% neutral buffered formaldehyde in situ. Tissues were then fixed overnight in 10% neutral buffered formaldehyde, embedded in paraffin, and sectioned. Lung specimens were stained with hematoxylin and eosin and then subjected to gross and microscopic pathologic analysis.
Mice were infected as described in Figure 2. […] (A) Hematoxylin & eosin-stained mouse lung sections (scale bar 200 μm) harvested at day 7 post-infection. (B) BALFs were collected from placebo and ponatinib-treated mice (n = 3 per group at each time point) starting day 3 post-infection to monitor total cell counts (mean ± SEM) on days 5 and 7 post-infection. The data are representative of at least three independent experiments.*p < 0.05; **p < 0.01.

[6] = tested on: pro-inflammatory cytokines in BALF; set-up: species or system BALB/c mice; details: mouse, in vivo
[7] = tested on: influenza A virus (A/PR/8/34); test: Viral titers in BALF of infected mice (TCID50 assay using MDCK cells); type: in vivo, BALB/c mice
[8] = tested on: PR8 strain of influenza virus; test: In vitro antiviral assays in U937, A549 cells and murine PCLS; type: cell-based
[9] = tested on: MCP-1, KC, IP-10 and IL-6 production in PCLS infected with influenza; test: Cytokine production in influenza-infected murine precision-cut lung slices (PCLS); type: cell-based, mouse
phospho-p38 = type: cell-based, human
IFN-α = IFN-α levels in influenza virus-infected U937 cells; type: cell-based, human
[10] = cited from earlier work
[11] = Homo sapiens, U-937, PR8 MOI = 0.1, 48 h
[12] = U937 cells, PR8 MOI = 0.1, 48 h

For `CNC(=O)c1cc(Oc2ccc(NC(=O)Nc3ccc(Cl)c(C(F)(F)F)c3)cc2)ccn1` [Sorafenib], the EC50 ([1]; Homo sapiens, U-937, 48 h) was 0.7 µM, the EC50 [2, 11] was 3.7 µM and the EC50 ([3]; Homo sapiens, U-937, 48 h) was 5.8 µM. The CC50 (in vitro) was 20.7 µM.

In the case of `CC(C)(C)n1nc(-c2ccc(Cl)cc2)c2c(N)ncnc21` [PP2], the EC50 [1, 12] is reported as greater than 100 µM, the EC50 ([2]; PR8 MOI = 0.1, 48 h) is reported as 3.3 µM and the EC50 [3, 12] is reported as 10.4 µM. For the same compound, the CC50 (U937 cells) was 40.3 µM.

In the case of `Nc1cccc(-c2cc3c(Oc4cccc(O)c4)ncnc3[nH]2)c1` [TWS119], the EC50 [1, 12] is reported as 9 µM, the EC50 ([2]; PR8 MOI = 0.1, 48 h) is reported as 8.5 µM and the EC50 [3, 12] is reported as 8 µM. For the same compound, the CC50 (U937 cells) was 5.4 µM.

`Cc1ccc2nc(NCCN)c3ncc(C)n3c2c1` [BMS-345541] showed an EC50 ([1]; Homo sapiens, U-937, 48 h) of 11.7 µM, an EC50 [2, 11] of 4.6 µM and an EC50 ([3]; Homo sapiens, U-937, 48 h) of 3.6 µM. It also gave a CC50 (in vitro) of 3.9 µM.

With `Cc1cn(-c2cc(NC(=O)c3ccc(C)c(Nc4nccc(-c5cccnc5)n4)c3)cc(C(F)(F)F)c2)cn1` [Nilotinib] the EC50 ([1]; Homo sapiens, U-937, 48 h) was 0.4 µM, the EC50 [2, 11] was 1.1 µM and the EC50 ([3]; Homo sapiens, U-937, 48 h) was 1.5 µM. It also gave a CC50 (in vitro) of 5.4 µM.

In the case of `Cc1ccc(C(=O)Nc2ccc(CN3CCN(C)CC3)c(C(F)(F)F)c2)cc1C#Cc1cnc2cccnn12` [Ponatinib], the EC50 ([1]; Homo sapiens, U-937, 48 h) is reported as 0.3 µM, the EC50 ([3]; Homo sapiens, U-937, 48 h) is reported as 0.4 µM and the Body weight loss ([4]; 5 mg/kg/d oral) is reported as “improvement in body weight loss decreased significantly compared to the middle dose group”. The Survival rate ([4]; 5 mg/kg/d oral) was 20%, the “Body weight loss, delayed administration” value ([4]; 15 mg/kg oral, started on days 1, 2, 3 or 4 post-infection until day 6) was “slowed down significantly” and the “Survival rate, delayed administration” value ([4]; 15 mg/kg oral, started on days 3 and 4 post-infection until day 6) was “higher survival rates than those treated starting on days 1 and 2”. The Survival rate ([4]; 15 mg/kg/d oral) was 50%, the Body weight loss ([4]; 15 mg/kg/d oral, days 3 to 5) was “least decline in body weight” and the Body weight loss ([4]; 25 mg/kg/d oral) was “improvement of body weight loss was not observed at all”. For the same compound, the Survival rate ([4]; 25 mg/kg/d oral) was 30%, the “Inflammatory infiltrates in the lungs (histology)” value ([5]; day 7 post-infection, vs placebo) was “fewer inflammatory infiltrates” and the “Infiltration of neutrophils in BALF” value ([5]; days 5 and 7 post-infection) was “greatly reduced”. For the same compound, the “Monocyte infiltration in BALF” value ([5]; days 5 and 7 post-infection) was “not affected”, the “Concentrations of IL-6, IL-10, MCP-1, Eotaxin, IL-12 (p40) and MIP-1β in BALF” value [6] was “not affected” and the “Expression levels of cytokines and chemokines in BALF (of 17 increased by infection)” value [6] was 14 cytokines and chemokines were attenuated. The “IFN-α levels in BALF vs placebo” value [6] was “higher on day 3 and lower on day 5 post-infection”, the “Inhibition of cytokines in BALF except IL-6 and CCL-5, late phase” value [6] was “minor” and the “Inhibition of cytokines in BALF, early phase” value [6] was “no cytokines were inhibited”. For the same compound, the “Levels of Eotaxin, G-CSF, MCP-1, IL-10, TNF-α and IP-10 in BALF” value [6] was “elevated”, the “Levels of type I IFNs in BALF and serum” value [6] was “reduce the levels of type I IFNs” and the “Production of cytokines and chemokines in BALF” value [6] was 8 cytokines and chemokines was reduced. For the same compound, the “Viral titers in BALF vs placebo” value ([7]; 15 mg/kg oral from day 0 (simultaneously with infection)) was “significantly higher at day 3 and slightly higher at day 7”, the “Virus titers in BALF vs placebo” value ([7]; 15 mg/kg oral from day 3, days 5 and 7 post-infection) was “no difference” and the “Replication of PR8 influenza virus in vitro” value [8] was “did not inhibit the replication”. The “MCP-1, KC, IP-10 and IL-6 productions in infected PCLS” value [9] was “dose-dependently”, the “Phosphorylation of p38” value (phospho-p38) was “downregulated” and the “Levels of IFN-α” value (IFN-α) was “downregulate”. For the same compound, the “Median time to first onset of pancreatitis” value ([10]; clinical trials) was 14 days and the “Median time to initial onset of arterial occlusive events” value ([10]; patients, long-term treatment) was 13.4 months.
